Test results published in a melting point compilation (Tetko et al.; mined from patent text by program, amines drawn as free bases though some values may be those of a salt).

Row | Compound | melting point
1 | CC(Nc1nc(NNC(=O)CCCl)nc(Cl)c1-c1c(F)cccc1Cl)C(F)(F)F (stereo unspecified) | 152 to 156 °C
2 | C[C@]12CCC(=O)N[C@@H]1CCc1cc(Sc3cccc(F)c3)ccc12 | 154 to 156 °C
3 | CCc1[nH]n(C2CCCC2)c2nc(-c3ccc(OCCCN(C)C)cc3)nc(=O)c1-2 | 175 to 178 °C
4 | CCCCC(CC)COC(=O)CSCc1cc(C(C)(C)C)c(O)c(C(C)(C)C)c1 (stereo unspecified) | 20 °C
5 | CC(=S)NC[C@H]1CN(c2ccc(N3CCC(=C(C)C#N)CC3)c(F)c2)C(=O)O1 | 171 to 172 °C
6 | O=c1c(CCl)c[nH]c2c([N+](=O)[O-])cccc12 | 228 to 235 °C
7 | CCOC(=O)C1=C(N)N=C(OCC)C(C(=O)OCC)C1c1cccc(C#N)c1 (stereo unspecified) | 159 °C
8 | COc1cccc(CNC(=O)c2nc3sc(C(N)=O)c(C)c3c(=O)[nH]2)c1 | 258 °C
9 | COc1ccc(C(O)CNCc2cccc([N+](=O)[O-])c2)cc1OC (stereo unspecified) | 105 to 107 °C
10 | O=C(NCc1cccnc1)c1ccc2n1Cc1ccccc1N(C(=O)c1ccccc1)C2 | 197 °C
11 | C=CCOC(=O)N1CCCC(OC)C1CC(=O)Cn1cnc2cc(Br)c(Cl)cc2c1=O (stereo unspecified) | 112 °C
12 | O=C1NC(=O)C(c2ccccc2)(c2c[nH]c3ccccc23)N1 (stereo unspecified) | 302 to 303 °C
13 | CNC1Cc2ccc(C(=O)Cn3cnc4cc(-c5ccc(Cl)cc5)sc4c3=O)cc2C1 (stereo unspecified) | 226 to 229 °C
14 | CC(C)C(NC(=O)OCc1ccccc1)C(=O)NC(Cc1ccccc1)C(O)C(Cc1ccccc1)NC(=O)C(NC(=O)OCc1cccnc1)C(C)C (stereo unspecified) | 177 to 178 °C
15 | Fc1ccc2[nH]ccc2c1Cl | 41 to 43 °C
16 | COC(=O)C1(CCN(C)C)c2ccccc2N(C)c2ccc(Cl)cc21 (stereo unspecified) | 106 °C
17 | Cc1nn(C)c2c(Nc3ccc(S(C)(=O)=O)cc3)nc(-c3ccc(F)cc3)nc12 | 216 to 218 °C
18 | C=CCN(CC)C(=O)n1cnc(S(=O)(=O)CC)n1 | 39 to 41.5 °C
19 | CN1CC(Oc2ccc(Nc3cc(-c4cccc(-n5ncc6cc(C(C)(C)C)cc(F)c6c5=O)c4CO)cn(C)c3=O)nc2)C1 | > 300 °C
20 | CCOC(=O)Oc1ncc(F)c(N=CN(C)C)n1 | 124 to 126 °C
21 | CCN(CC)c1nc(CO)cs1 | 67 to 69 °C
22 | O=C1c2ccccc2CN1CCC#Cc1ccccn1 | 94 to 98 °C
23 | CCCCCCCCCCCCCCCCCCCCCCOc1ccc(C(=O)OCC)cc1 | 56.5 to 59.5 °C
24 | Nc1oc2ccc([N+](=O)[O-])cc2c(=O)c1C=O | 228 to 229 °C
25 | Cc1cc(CCCCCOc2c(Cl)cc(-c3nc(C)c(C)s3)cc2Cl)on1 | 57 to 58 °C
26 | Cc1ccc(-c2cccc(C(N)=NO)c2)cc1 | 134 to 136 °C

Row | Compound | melting point
27 | C=CCOc1cc(C)c(OC(C)=O)c(C)c1C | 40 to 41 °C
28 | Cc1cccc(C2(O)c3cc(NC(=O)CC(C)(C)C)c(C)c(C)c3OC2(C)C)c1 (stereo unspecified) | 113 to 114 °C
29 | CCNC(=S)NC1=Nc2ccc(OC(F)(F)F)cc2SC1 | 199 to 201 °C
30 | C#CCOc1cc(Oc2ccc(Cl)c(Cl)c2)ncn1 | 109 °C
31 | COC(=O)C1=C(SC)N(c2ccc(Cl)cc2Cl)CCC1 | 83 to 86 °C
32 | CCc1noc(C)c1-c1[nH]c2ccccc2c1C(C)=O | 170 to 173 °C
33 | CN1C(=O)C(NS(=O)(=O)CC23CCC(CC2=O)C3(C)C)N=C(c2ccccc2)c2ccccc21 (stereo unspecified) | 204 to 206 °C
34 | CS(=O)(=O)c1ccc(-c2nc(C(F)(F)F)[nH]c2-c2ccccc2)cc1 | 228 to 230 °C
35 | Cc1nc(N2CCC[C@H]2CO)c2nc(-c3ccccc3)cc-2[nH]1 | 255 to 256 °C
36 | CCOc1ccnc(Cl)n1 | 30 to 31 °C
37 | CCOC(=O)CNC(=O)[C@H](Cc1ccc(O)cc1)NC(=O)[C@H](CO)NC(=O)OCc1ccccc1 | 166 to 169 °C
38 | O=C(O)CCSC(c1ccccc1)(c1ccccc1)c1ccccc1 | 205 to 208 °C
39 | CN1CCN(CCCc2cc3ccccc3c(=O)[nH]2)CC1 | 120 to 122 °C
40 | Cc1onc(-c2ccccc2)c1-c1ccc(S(C)(=O)=O)cc1 | 54 to 56 °C
41 | CCCCNC[C@@H](O)[C@H](Cc1ccccc1)NC(=O)OCc1ccccc1 | 118 to 120 °C
42 | CCOC(=O)C1=Cc2ccsc2S(=O)(=O)N1c1cccc(OC)c1 | 107 to 109 °C
43 | CCOC(=O)CC(=O)Nc1ccc(F)cc1 | 68 to 71 °C
44 | COc1ccc(/C(=C\C=C\C(=O)Oc2ccc([N+](=O)[O-])cc2)C2CC2)cc1 | 111 to 112 °C
45 | C1=Cc2ccccc2OC1 | 48 to 51 °C
46 | N#Cc1cc(NC(=O)c2cc3ccccc3s2)ccc1N1CCC(N2CCCCC2)CC1 | 275 °C
47 | CC(O)c1ccc(C(C)(C)C)cc1 (single isomer, unassigned; (+)) | 85 °C
48 | N#CC1Sc2ccccc2-c2ccccc21 (stereo unspecified) | 114 to 116 °C
49 | O=C(N[C@H](Cc1ccccc1)C(=O)O)C1CCCC1 | 102 to 104 °C
50 | C#CCOC(=O)Nc1ccc(C2=NNC(=O)CC2C)cc1 (stereo unspecified) | 204 to 205 °C
51 | CC(C)Oc1ccc([N+](=O)[O-])cc1C(F)(F)F | 34 to 36 °C
52 | CC1(C)OC(=O)Nc2ccc(-c3coc(C#N)c3)cc21 | 255 to 256 °C

Row | Compound | melting point
53 | COCc1c(C)c(C(C)(C)C)cc(C(C)(C)C)c1O | 70 °C
54 | COc1ccc(CCN2CCC(C(O)c3ccc(NS(C)(=O)=O)cc3)CC2)cc1 (stereo unspecified) | 40 to 48 °C
55 | CCCc1c(OCCCOc2ccc(C(=O)O)cc2Br)ccc(C(C)=O)c1OC(=O)CC | 136 to 137 °C
56 | COC1=CC2SC2C2(OC)SC12OC (stereo unspecified) | 143 to 144 °C
57 | OCC1OC(n2c(Cl)nc3cc(Cl)c(F)cc32)C(O)C1O (stereo unspecified) | 170 to 172 °C
58 | CC1(CCCN)NC(=O)NC1=O (stereo unspecified) | 183 to 185 °C
59 | CCOc1ccc(-c2nc(-c3cccc(C(C#N)C(=O)OC)n3)cs2)cc1OCC (stereo unspecified) | 240 to 242 °C
60 | CC(C)(C)OC(=O)CCc1ccnc(-c2nc(=O)c3ccc(Cl)cc3s2)c1 | 152 °C
61 | CC(=O)OC(CF)c1ccccc1S(=O)(=O)NC(C)(C)C (stereo unspecified) | 118 to 119 °C
62 | CCCCOc1cc(/C=C(\OCC)C(=O)O)ccc1OCCc1ccc(OCC)c(F)c1 | 119 °C
63 | CC(N)Cc1ncc(O)c(C(=O)c2ccccc2)c1C(=O)c1ccccc1 (stereo unspecified) | 110 to 112 °C
64 | CONC1=NS(=O)(=O)c2cc(Cl)ccc2N1 | > 220 °C
65 | CCC(=O)c1c(C(C)C)nn2ccccc12 | 41 to 42 °C
66 | CC(C)On1c(C(C)C)nc2c(N)nc3ccccc3c21 | 177 to 179 °C
67 | CCCc1nc2c(C)cc(-c3nc4ccccc4n3C)cc2n1Cc1ccc(-c2ccccc2S(=O)(=O)O)cc1 | 307 to 310 °C
68 | CCOC(=O)c1nn(-c2ccc(OC(F)(F)F)cc2)c2cccc(F)c2c1=O | 178 °C
69 | CCCC1(C(=O)N(C)Cc2ccccc2)c2ccccc2-c2ccccc21 | 73 to 74 °C
70 | Cc1c(NC(=O)c2ccc(-c3ccc(F)cc3)cc2)ccc2cc(CN3CCN(C)CC3)cnc12 | 152 to 153 °C
71 | C/C=C/C(=O)OC(COc1ccc(C(=O)c2ccccc2)c(O)c1)COc1ccc(C(=O)c2ccccc2)c(O)c1 | 99 to 103 °C
72 | CCCCCCOc1ccc(OC)c(Cc2cnc(N)nc2N)c1 | 139 to 140 °C
73 | O=C1NCCc2c(-c3ccc(F)cc3F)[nH]c3cccc1c23 | 196 to 197 °C
74 | COc1cccc(/C=C/c2nc3c([nH]2)c(=O)n(C)c(=O)n3C)c1OC | 289 to 290 °C
75 | CN1C(=O)C(c2ccc(OCCF)cc2)(c2ccc(F)c(-c3cccnc3F)c2)N=C1N (stereo unspecified) | 135 °C
76 | CN(C)S(=O)(=O)NCC(C)(C)N | 77 to 78 °C
77 | CSC(=C[N+](=O)[O-])NCCSCc1[nH]cnc1C | 147 to 150 °C
78 | CC(C)Cc1ccc(-c2cc(C(=O)O)cc(-c3ccc(Cl)cc3)n2)cc1 | 220 to 221 °C

Row | Compound | melting point
79 | OCC1OC2CC(O)CC(C2)O1 (stereo unspecified) | 146 to 149 °C
80 | N#CC1(Sc2ccccc2)Cc2cc3c(cc21)N(C(=O)Nc1cccnc1)CC3 (stereo unspecified) | 110 to 113 °C
81 | CCCCC1OC(=O)c2cc(C#N)ccc21 (stereo unspecified) | 85 to 86 °C
82 | CC(=O)OCc1nc2cc(Cl)c(C)cc2c(=O)n1C | 110 to 112 °C
83 | CN(C(=O)Nc1ccc(Cl)c(Cl)c1)S(=O)C(C)(C)C (stereo unspecified) | 118 °C
84 | COc1cc(-c2oc3ccccc3c(=O)c2C(=O)O)cc(OC)c1OC | 260 to 262 °C
85 | C=CCn1c(SC(Cl)=C(Cl)C#N)nnc1C(F)(F)F | 45 to 48 °C
86 | Cc1ccc(S(=O)(=O)NC(C)(C)CO)cc1NC(=O)c1cnn2c(C(F)(F)F)cc(-c3ccc(C(F)(F)F)cc3)nc12 | 240 °C
87 | CCCc1c(OCCCSc2ccc(C(=O)NCC(=O)OCC)cc2)ccc(C(C)=O)c1O | 115 to 116 °C
88 | COc1c(C)c(OC(=O)c2c(C)c(C)c(OCCCOc3ccc(C(=O)O)cc3)c(C)c2OC)c(C)c(C)c1C(N)=O | 267 to 268 °C
89 | O=C1c2cccc(OCc3ccccc3)c2-c2nn(CCNCCO)c3ccc(Cl)c1c23 | 165 to 167 °C
90 | COc1ccc(C(=O)c2c(-c3ccccc3)sc3ccccc23)cc1 | 107 to 109 °C
91 | Cc1c(C)c(N2Cc3cc4c(cc3C2)OCO4)c(C)c2c1OC(C)(C)C2c1ccc(C(C)C)cc1 (stereo unspecified) | 175 to 177 °C
92 | CNc1cc(Oc2cc(C(F)(F)F)nn2C)nc(Oc2cc(C(F)(F)F)nn2C)c1 | 118 °C
93 | O=C(Nc1ccc(-c2ccc(C(=O)O)cc2)cc1)OCC1c2ccccc2-c2ccccc21 | 245 to 248 °C
94 | CSc1ncccc1NC(=O)CCCCCCCCSc1nc2ccccc2o1 | 84 to 85 °C
95 | CCOC(=O)c1cnc(-c2ccc(OC)cc2OC)[nH]c1=O | 190 to 192 °C
96 | Nc1ccc(C(=O)CCCN2CCC(OC(=O)c3cc(Cl)c(N)c4c3OCC4)CC2)cc1N | 173 °C
97 | CCN1c2ncc(COc3ccc(O)cc3)cc2C(=O)N(C)c2ccc(Cl)nc21 | 199 to 200 °C
98 | CCCCCCCCCCC=CCc1c[nH]c(C(=O)NN)c1 | 130 to 132 °C
99 | O=C(O)[C@@H]1C[C@H](Cc2ccc(Cl)cc2)CN1 | 233 to 235 °C
100 | Cc1nc(Cn2c(=O)sc3cc(F)ccc32)no1 | 142 to 144 °C
101 | CNS(=O)(=O)N=C(NC(=O)OC)C(C)C | 194 to 199 °C
